Among the data in ChEMBL document CHEMBL3046315, “Synthesis and Fungicidal Activity of New Thiophosphorylated Monoterpenoids and Related Compounds” (1996) are inhibition of growth values, retold here.

What all share (assay type): functional
Test [1] relates to Athelia rolfsii. Kind of test: Fungicidal activity against Athelia rolfsii assessed as growth inhibition at 100 ppm after 5 days by agar dilution test. The conditions noted are these: Agroathelia rolfsii, 120 h; read-out: GI. Background: In agar dilution the substance is mixed into plates at graded concentrations.
Test [2] has as its system Athelia rolfsii. Kind of test: Fungicidal activity against Athelia rolfsii assessed as growth inhibition at 10 ppm after 5 days by agar dilution test. The conditions noted are these: Agroathelia rolfsii, 120 h; read-out: GI.
The test system of test [3] is Pythium. The test can be described thus: Fungicidal activity against Pythium sp. assessed as growth inhibition at 100 ppm after 5 days by agar dilution test. The conditions noted are these: 120 h, read-out: GI.
Test [4] deals with Pythium. Kind of test: Fungicidal activity against Pythium sp. assessed as growth inhibition at 10 ppm after 5 days by agar dilution test. Conditions: 120 h, read-out: GI.

On to `COP(=S)(OC)OCCC(C)CCC=C(C)C` (configuration not stated), for which the inhibition of growth at 100 ppm in test [1] worked out at 76.9%; in test [3] it was 30%. Besides, the inhibition of growth at 10 ppm in test [2] was 36.2%.

`COP(=S)(OC)Oc1cc(C(C)C)ccc1C`: the figures for the inhibition of growth at 100 ppm in test [1] and in test [3] were 85.2% and 61.1%, respectively. The inhibition of growth at 10 ppm in test [2] was 37.5%; in test [4] it was 22.8%.

With `COP(=S)(OC)Oc1cc(C)ccc1C(C)C`, the values for the inhibition of growth at 100 ppm in test [1] and in test [3] were 84.3% and 67.4%, respectively. The inhibition of growth at 10 ppm in test [2] was 29.3%; in test [4] it was 32.5%.

Turning to `C=CCc1ccc(OP(=S)(OC)OC)c(OC)c1`, the inhibition of growth at 100 ppm amounted to 90.5% in test [1] and 44.9% in test [3]. Besides, the inhibition of growth at 10 ppm in test [2] amounted to 38.5%.

As to `COP(=S)(OC)OCCc1ccccc1`, the values for the inhibition of growth at 100 ppm in test [1] and in test [3] were 100% and 89.8%, respectively. The inhibition of growth at 10 ppm in test [2] turned out to be 56.6%; in test [4], 39.6%.

Turning to `CCOP(=S)(OCC)OCCC(C)CCC=C(C)C` (configuration not stated), the inhibition of growth at 100 ppm in test [1] is 31.3%; in test [3], 10.2%.

As for `CCOP(=S)(OCC)Oc1cc(C(C)C)ccc1C`, the inhibition of growth at 100 ppm was found to be 58.2% in test [1] and 19.8% in test [3].

`CCOP(=S)(OCC)Oc1cc(C)ccc1C(C)C`: the inhibition of growth at 100 ppm in test [1] came to 56.8%; in test [3], 52.9%.

Consider `C=CCc1ccc(OP(=S)(OCC)OCC)c(OC)c1`, for which the inhibition of growth at 100 ppm in test [1] was found to be 60.2%; in test [3], 34.3%.

Consider `CCOP(=S)(OCC)OCCc1ccccc1`, for which the inhibition of growth at 100 ppm was 95.1% in test [1] and 68.8% in test [3]. In test [2], the inhibition of growth at 10 ppm stood at 42.3%.

With `Cc1ccc(C(C)C)cc1OP(=S)(Oc1cc(C(C)C)ccc1C)c1ccccc1`, the inhibition of growth at 100 ppm in test [1] and in test [3] was 0% in each case.

For the molecule `Cc1ccc(C(C)C)c(OP(=S)(Oc2cc(C)ccc2C(C)C)c2ccccc2)c1`, the inhibition of growth at 100 ppm in test [1] turned out to be 0%; in test [3], 1.3%.

With `CCOP(O)(=S)OCCC(C)CCC=C(C)C` (configuration not stated), the inhibition of growth at 100 ppm in test [1] was determined as 70.7%; in test [3] it was 67%. Moreover, the inhibition of growth at 10 ppm in test [2] was determined as 0%; in test [4] it was 15.8%.

In the case of `CCOP(O)(=S)Oc1cc(C)ccc1C(C)C` (configuration not stated), the inhibition of growth at 100 ppm came out at 46% in test [1] and 55.7% in test [3].

Turning to `C=CCc1ccc(OP(O)(=S)OCC)c(OC)c1` (configuration not stated), the inhibition of growth at 100 ppm in test [1] stood at 24.7%; in test [3] it was 37.3%.

Turning to `CCOP(O)(=S)OCCc1ccccc1` (configuration not stated), the values for the inhibition of growth at 100 ppm in test [1] and in test [3] were 29.2% and 61.1%, respectively.

In the case of `CC(C)=CCCC(C)CCO` (configuration not stated) [CITRONELLOL], the inhibition of growth at 100 ppm in test [1] turned out to be 23.9%; in test [3] it was 68.9%. In addition, the inhibition of growth at 10 ppm in test [4] worked out at 0%.

`CCOP(=S)(OCCC(C)CCC=C(C)C)OCCC(C)CCC=C(C)C` (configuration not stated) [DICITRONELLYL PHOSPHOROTHIONATE]: the results for the inhibition of growth at 100 ppm in test [1] and in test [3] were 30.3% and 64.5%, respectively.

Turning to `C=CCc1ccc(OP(=S)(OCC)Oc2ccc(CC=C)cc2OC)c(OC)c1` [DIEUGENOL PHOSPHOROTHIONATE], the inhibition of growth at 100 ppm in test [1] stood at 6.1%; in test [3] it was 34.6%.

Turning to `CCOP(=S)(Oc1cc(C(C)C)ccc1C)Oc1cc(C(C)C)ccc1C` [DIISOTHYMOL PHOSPHOROTHIONATE], the results for the inhibition of growth at 100 ppm in test [1] and in test [3] were 36.8% and 67%, respectively.

`CCOP(=S)(OCCc1ccccc1)OCCc1ccccc1` [DIPHENETHYL ETHYL PHOSPHOROTHIONATE]: the inhibition of growth at 100 ppm in test [1] is 33.4%; in test [3] it was 23.3%.

In the case of `CCOP(=S)(Oc1cc(C)ccc1C(C)C)Oc1cc(C)ccc1C(C)C` [DITHYMOL PHOSPHOROTHIONATE], the inhibition of growth at 100 ppm stood at 30.3% in test [1] and 58.4% in test [3].

With `CCOP(O)(=S)Oc1cc(C(C)C)ccc1C` (configuration not stated) [ETHYL ISOTHYMYL HYDROGENPHOSPHOROTHIONATE], the inhibition of growth at 100 ppm in test [1] stood at 54.9%; in test [3] it was 71%. Also, the inhibition of growth at 10 ppm in test [4] amounted to 10.4%.

With `C=CCc1ccc(O)c(OC)c1` [EUGENOL], the values for the inhibition of growth at 100 ppm in test [1] and in test [3] were 67.6% and 92.7%, respectively. For the same molecule, the inhibition of growth at 10 ppm in test [2] came to 5.9%; in test [4] it was 7.4%.

With `CC(C)OP(=O)(OC(C)C)SCc1ccccc1` [IPROBENFOS], the values for the inhibition of growth at 100 ppm in test [1] and in test [3] were 100% and 88.5%, respectively. In addition, the inhibition of growth at 10 ppm stood at 68.8% in test [2] and 41.7% in test [4].

For `Cc1ccc(O)c(C(C)C)c1` [ISOTHYMOL], the values for the inhibition of growth at 100 ppm in test [1] and in test [3] were 72.4% and 94.3%, respectively. In addition, the inhibition of growth at 10 ppm is 38% in test [2] and 24.2% in test [4].

On to `OCCc1ccccc1` [PHENYLETHYL ALCOHOL], for which the inhibition of growth at 100 ppm in test [1] was 0%; in test [3], 50.9%.

Turning to `Cc1ccc(C(C)C)c(O)c1` [THYMOL], the results for the inhibition of growth at 100 ppm in test [1] and in test [3] were 71% and 93%, respectively. Besides, the inhibition of growth at 10 ppm in test [2] is 28.3%; in test [4], 29.6%.
